This is an account of results in BindingDB's records for doi:10.1016/0014-2999(92)90578-r (Novo Nordisk, 1992).

Values joined by “and” are separate entries in the source; they are usually repeats but may differ in a detail not shown here. Identical values can stand only once.

For assay [1], the target named is D(2) dopamine receptor (Rattus norvegicus, UniProt P61169).
For assay [2], the target named is D(1A) dopamine receptor (Rattus norvegicus, UniProt P18901).
Assay [3] deals with 5-hydroxytryptamine receptor 2A (Rattus norvegicus, UniProt P14842).
In assay [4] the target is Adenylate cyclase type 2 (Rattus norvegicus, UniProt P26769).
Adenylate cyclase type 2, sequence (P26769 whole entry): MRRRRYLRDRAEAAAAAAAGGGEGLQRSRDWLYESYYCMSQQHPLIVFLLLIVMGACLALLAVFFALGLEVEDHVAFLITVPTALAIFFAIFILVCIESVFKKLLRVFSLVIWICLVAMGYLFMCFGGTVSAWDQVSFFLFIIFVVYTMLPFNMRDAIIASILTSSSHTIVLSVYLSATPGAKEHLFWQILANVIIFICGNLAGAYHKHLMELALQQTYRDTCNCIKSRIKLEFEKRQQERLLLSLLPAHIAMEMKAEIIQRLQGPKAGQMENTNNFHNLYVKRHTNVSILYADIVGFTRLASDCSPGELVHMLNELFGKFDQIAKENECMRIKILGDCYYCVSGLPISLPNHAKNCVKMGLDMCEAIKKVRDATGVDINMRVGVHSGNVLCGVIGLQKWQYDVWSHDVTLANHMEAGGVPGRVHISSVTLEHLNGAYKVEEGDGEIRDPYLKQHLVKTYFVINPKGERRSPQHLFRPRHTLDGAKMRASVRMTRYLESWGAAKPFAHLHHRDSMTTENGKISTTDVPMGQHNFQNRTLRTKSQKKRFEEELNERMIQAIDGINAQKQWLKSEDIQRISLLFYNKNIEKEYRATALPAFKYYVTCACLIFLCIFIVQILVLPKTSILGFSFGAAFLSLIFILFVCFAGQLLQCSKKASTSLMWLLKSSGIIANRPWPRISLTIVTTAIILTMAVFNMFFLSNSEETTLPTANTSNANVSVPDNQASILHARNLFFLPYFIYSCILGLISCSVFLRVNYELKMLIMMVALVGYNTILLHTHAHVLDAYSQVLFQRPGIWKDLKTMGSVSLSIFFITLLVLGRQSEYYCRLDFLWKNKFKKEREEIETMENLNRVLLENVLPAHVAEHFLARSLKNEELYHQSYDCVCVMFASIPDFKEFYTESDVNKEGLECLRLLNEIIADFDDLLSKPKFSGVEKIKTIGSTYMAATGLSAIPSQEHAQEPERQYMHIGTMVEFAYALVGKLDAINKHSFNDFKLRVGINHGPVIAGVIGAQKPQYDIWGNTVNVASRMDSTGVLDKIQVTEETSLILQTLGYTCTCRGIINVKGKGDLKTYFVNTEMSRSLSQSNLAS

D(2) dopamine receptor, sequence (P61169 whole entry): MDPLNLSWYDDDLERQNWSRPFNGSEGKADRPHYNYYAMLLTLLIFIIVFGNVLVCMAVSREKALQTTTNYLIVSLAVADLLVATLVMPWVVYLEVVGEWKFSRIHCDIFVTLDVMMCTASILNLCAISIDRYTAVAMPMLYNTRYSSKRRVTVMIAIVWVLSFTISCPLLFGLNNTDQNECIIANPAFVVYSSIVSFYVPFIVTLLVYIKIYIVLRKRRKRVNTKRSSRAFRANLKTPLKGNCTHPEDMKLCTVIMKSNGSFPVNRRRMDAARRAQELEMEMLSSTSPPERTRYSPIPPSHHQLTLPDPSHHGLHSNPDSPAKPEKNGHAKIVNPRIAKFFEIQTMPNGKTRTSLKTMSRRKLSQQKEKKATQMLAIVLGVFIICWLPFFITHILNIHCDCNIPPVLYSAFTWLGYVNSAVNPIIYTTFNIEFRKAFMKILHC
5-hydroxytryptamine receptor 2A, sequence (P14842 whole entry): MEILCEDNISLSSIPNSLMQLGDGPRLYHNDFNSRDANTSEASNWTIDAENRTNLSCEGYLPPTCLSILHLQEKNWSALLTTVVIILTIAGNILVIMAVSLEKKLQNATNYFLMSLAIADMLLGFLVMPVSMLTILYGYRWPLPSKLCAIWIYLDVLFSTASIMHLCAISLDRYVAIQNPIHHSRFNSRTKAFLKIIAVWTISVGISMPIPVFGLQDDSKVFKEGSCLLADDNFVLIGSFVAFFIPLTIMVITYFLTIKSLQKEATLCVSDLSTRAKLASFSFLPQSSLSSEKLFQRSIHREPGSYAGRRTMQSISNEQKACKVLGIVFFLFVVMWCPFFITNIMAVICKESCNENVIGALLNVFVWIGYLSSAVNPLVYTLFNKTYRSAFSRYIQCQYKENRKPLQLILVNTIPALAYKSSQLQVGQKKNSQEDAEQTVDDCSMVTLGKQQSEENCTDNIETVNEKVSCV
D(1A) dopamine receptor, sequence (P18901 whole entry): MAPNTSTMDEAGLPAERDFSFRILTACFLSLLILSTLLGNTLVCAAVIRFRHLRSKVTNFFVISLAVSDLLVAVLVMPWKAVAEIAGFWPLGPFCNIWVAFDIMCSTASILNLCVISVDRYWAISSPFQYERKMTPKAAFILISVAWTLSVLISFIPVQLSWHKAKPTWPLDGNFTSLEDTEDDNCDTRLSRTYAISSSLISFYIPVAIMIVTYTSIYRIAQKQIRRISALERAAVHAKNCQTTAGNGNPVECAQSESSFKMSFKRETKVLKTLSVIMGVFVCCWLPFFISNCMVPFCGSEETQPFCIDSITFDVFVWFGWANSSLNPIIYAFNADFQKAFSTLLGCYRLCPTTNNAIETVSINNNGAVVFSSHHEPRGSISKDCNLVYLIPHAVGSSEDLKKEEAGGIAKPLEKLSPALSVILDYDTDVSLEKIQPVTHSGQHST

On to `CN1CCc2cc([N+](=O)[O-])c(O)cc2C(c2cccc3c2OCC3)C1` (stereo not drawn) [CAS_164252], for which the Ki in assay [1] was > 10000 nM; in assay [2], 5.8 nM; in assay [3], 355 nM; in assay [4], 9.1 nM.

With `Oc1cc2c(cc1O)[C@@H](c1ccccc1)CNCC2`, the Ki in assay [3] is > 10000 nM; in assay [4], 415 nM.

Regarding `CN1CCc2cc(Cl)c(O)cc2C(c2cccc3c2OCC3)C1` (stereo not drawn) [NSC_132421], the Ki in assay [1] amounted to 942 nM; in assay [2], 0.17 nM; in assay [3], 4.5 nM; in assay [4] it was 2.2 nM.

As for `CN1CCc2cc(Cl)c(O)cc2[C@@H](c2cccc3ccoc23)C1`, the Ki in assay [1] is 898 nM and 988 nM; in assay [4], 2.8 nM.

In turn, `CN1CCc2cc(Cl)c(O)cc2[C@@H](c2ccccc2)C1` [SCH 23390,R(+)] registered a Ki in assay [4] of 39.9 nM.

A word on the Ki: it is a measure of affinity in units of concentration, obtained from inhibition or displacement.
